Source: US20150141470A1, “DIAGNOSTIC AND TREATMENT METHODS IN PATIENTS HAVING OR AT RISK OF DEVELOPING RESISTANCE TO CANCER THERAPY” (The Broad Institute, Inc., priority 2012, published 2015)

Assays:
Assay type in all cases: cell-based
A375 = assay: PLX4720 and MAPK inhibitor sensitivity of ORF-expressing A375 (secondary screen); conditions: for effect of ectopic GEF expression on sensitivity to the inhibitor: A375 transfected with GEF ORFS; for sensitivity of A375 to the inhibitor: parental A375 cell line
Method: A375 (1.5×10^3) and SKMEL28 cells (3×10^3) were seeded in 96-well plates for 18 h. ORF-expressing lentivirus was added at a 1:10 dilution in the presence of 8 μg/ml polybrene, and centrifuged at 2250 RPM and 37° C. for 1 h. Following centrifugation, virus-containing media was changed to normal growth media and allowed to incubate for 18 h. Twenty-four hours after infection, DMSO (1:1000) or 10× PLX4720 (in DMSO) was added to a final concentration of 100, 10, 1, 0.1, 0.01, 0.001, 0.0001 or 0.00001 μM. Cell viability was assayed using WST-1 (Roche), per manufacturer recommendation, 4 days after the addition of PLX4720.
Cultured cells were seeded into 96-well plates (3,000 cells per well) for all melanoma cell lines; 1,500 cells were seeded for A375. Twenty-four hours after seeding, serial dilutions of the relevant compound were prepared in DMSO added to cells, yielding final drug concentrations ranging from 100 μM to […], with the final volume of DMSO not exceeding 1%. Cells were incubated for 96 h following addition of drug. Cell viability was measured using the WST1 viability assay (Roche). Viability was calculated as a percentage of control (untreated cells) after background subtraction. A minimum of six replicates were performed for each cell line and drug combination. Data from growth-inhibition assays were modeled using a nonlinear regression curve fit with a sigmoid dose-response. […] Sigmoid-response curves that crossed the 50% inhibition point at or above 10 μM have GI50 values annotated as >10 μM. For single-dose studies, the identical protocol was followed, using a single dose of indicated drug (1 μM unless otherwise noted).

WM266.4 [1] = assay: Single-dose cell viability of forskolin-treated cells with MAPK-pathway and HDAC inhibitors; conditions: sub-lethal doses; Panobinostat 10 nM, Vorinostat 1.5 μM, Entinostat 1.5 μM; 96 hrs
Method: Twenty-four hours after seeding, serial dilutions of the relevant compound were prepared in DMSO to 1000× stocks. Drug stocks were then diluted 1:100 into appropriate growth media and added to cells at a dilution of 1:10 (lx final), yielding drug concentrations ranging from 100 μM to 1×10-5 μM, with the final volume of DMSO not exceeding 1%. When indicated, forskolin (10 μM), IBMX (100 μM), dbcAMP (100 μM) were added concurrent with MAPK-pathway inhibitors. Cells were incubated for 96 h following addition of drug. Cell viability was measured using CellTiterGlo viability assay (Promega). Viability was calculated as a percentage of control (DMSO treated cells). A minimum of six replicates were performed for each cell line and drug combination. Data from growth-inhibition assays were modeled using a nonlinear regression curve fit with a sigmoid dose-response. […] For single-dose studies, WM266.4 were seeded at 5,000 cells/well in 96-well, white-walled, clear bottom plates and the identical protocol (above) was followed, using a single dose of indicated drug.

WM266.4 [2] = assay: Immunoblots of MITF, SOX10, acetylated histone H3 and other proteins in melanoma cells; conditions: for acetylated histone H3: WM266.4, 18 hours; for SOX10 and MITF expression: WM266.4, independent of ERK phosphorylation
Method: (§1) Adherent cells were washed once with ice-cold PBS and lysed passively with 1% NP-40 buffer [150 mM NaCl, 50 mM Tris pH 7.5, 2 mM EDTA pH 8, 25 mM NaF and 1% NP-40] containing 2× protease inhibitors (Roche) and 1× Phosphatase Inhibitor Cocktails I and II (CalBioChem). Lysates were quantified (Bradford assay), normalized, reduced, denatured (95° C.) and resolved by SDS gel electrophoresis on 4-20% Tris/Glycine gels (Invitrogen). […] After incubation with the appropriate secondary antibody (anti-rabbit, anti-mouse or anti-goat IgG, IRDye-linked; 1:15,000 dilution; IRDye 800CW, 1:20,000 IRDye 680LT, LiCOR), proteins were imaged using an Odyssey CLx scanner (LiCOR).

WM266.4 [3] = assay: Quantitative RT/PCR of MITF, FOS, NR4A1 and NR4A2 mRNA; conditions: within 1 hour of treatment, absence of MEK inhibitor
Method: mRNA was extracted from WM266.4 using the RNeasy kit (Qiagen) and homogenized using the Qiashredder kit (Qiagen). Total mRNA was used for subsequent reverse transcription using the SuperScript III First-Strand Synthesis SuperMix (Invitrogen). 5 μl of reverse-transcribed cDNA was used for quantitative PCR using SYBR Green PCR Master Mix and gene-specific primers, in quadruplicate, using an ABI PRISM 7900 Real Time PCR System. Primers used for detection were as follows; NR4A2 forward: 5′-GTTCAGGCGCAGTATGGGTC-3′ (SEQ ID NO: 7); NR4A2 reverse: 5′-AGAGTGGTAACTGTAGCTCTGAG-3′ (SEQ ID NO: 8); NR4A1 forward: 5′-ATG CCC TGT ATC CAA GCC C-3′ (SEQ ID NO: 9); NR4A1 reverse: 5′-GTGTAGCCGTCCATGAAGGT-3′ (SEQ ID NO: 10); DUSP6 forward: 5′-CTG CCG GGC GTT CTA CCT-3′ (SEQ ID NO: 11); DUSP6 reverse: 5′-CCAGCCAAGCAATGTACCAAG-3′ (SEQ ID NO: 12); MITF forward: 5′-TGC CCA GGC ATG AAC ACA C-3′ (SEQ ID NO: 13); MITF reverse: 5′-TGGGAAAAATACACGCTGTGAG-3′ (SEQ ID NO: 14); FOS forward: 5′-CACTCCAAGCGGAGACAGAC-3′ (SEQ ID NO: 15); FOS reverse: 5′-AGGTCATCAGGGATCTTGCAG-3′ (SEQ ID NO: 16); TBP forward: 5′-CCCGAAACGCCGAATATAATCC-3′ (SEQ ID No: 17); TBP reverse: 5′-GACTGTTCTTCACTCTTGGCTC-3′ (SEQ ID NO: 18). Relative expression was determined using the comparative CT method (Applied Biosystems).

WM266.4 [4] = assay: Western blot of CREB and ERK phosphorylation; conditions: WM266.4, 1 hr treatment
Method: as §1

## Cn1cnc2c(F)c(Nc3ccc(Br)cc3Cl)c(C(=O)NOCCO)cc21 [AZD6244]
A375
  effect of ectopic GEF expression on sensitivity to the inhibitor: decreased sensitivity
  sensitivity of A375 to the inhibitor: sensitive

## Nc1ccccc1NC(=O)c1ccc(CNC(=O)OCc2cccnc2)cc1 [Entinostat]
WM266.4 [1]
  sensitivity of forskolin-treated cells to MAPK-pathway inhibitors: restored sensitivity to MAPK-pathway inhibitors to levels approaching parental cells

## O=S(=O)(NCCNC/C=C/c1ccc(Br)cc1)c1cccc2cnccc12 [H89]
WM266.4 [2]; WM266.4, 10 μM H89 pre-treatment
  effect on forskolin-mediated rescue of MITF protein expression: largely abrogated

## Cc1[nH]c2ccccc2c1CCNCc1ccc(/C=C/C(=O)NO)cc1 [Panobinostat]
WM266.4 [2]
  acetylated histone H3: increases
  SOX10 and MITF expression: reduction
WM266.4 [1]
  sensitivity of forskolin-treated cells to MAPK-pathway inhibitors: restored sensitivity to MAPK-pathway inhibitors to levels approaching parental cells

## Cc1cnc(Nc2ccc(F)cc2Cl)nc1-c1c[nH]c(C(=O)N[C@H](CO)c2cccc(Cl)c2)c1 [VTX-11E]
A375
  effect of ectopic GEF expression on sensitivity to the inhibitor: decreased sensitivity
  sensitivity of A375 to the inhibitor: sensitive

## O=C(CCCCCCC(=O)Nc1ccccc1)NO [Vorinostat]
WM266.4 [2]
  acetylated histone H3: increases
  SOX10 and MITF expression: reduction

## C=C[C@@]1(C)CC(=O)[C@]2(O)[C@@]3(C)[C@@H](O)CCC(C)(C)[C@@H]3[C@H](O)[C@H](OC(C)=O)[C@@]2(C)O1 [forskolin]
WM266.4 [3]
  increases in mRNA expression of MITF, FOS, NR4A1 and NR4A2: 2- to 20 fold
WM266.4 [4]
  ERK phosphorylation: no effect
